SMILES strings stand for the structures. “And” between values parts separate entries of the source, which are not always exact repeats. Identical values can stand only once.

Chain of Mu opioid receptor (P35372 whole entry, species assumed): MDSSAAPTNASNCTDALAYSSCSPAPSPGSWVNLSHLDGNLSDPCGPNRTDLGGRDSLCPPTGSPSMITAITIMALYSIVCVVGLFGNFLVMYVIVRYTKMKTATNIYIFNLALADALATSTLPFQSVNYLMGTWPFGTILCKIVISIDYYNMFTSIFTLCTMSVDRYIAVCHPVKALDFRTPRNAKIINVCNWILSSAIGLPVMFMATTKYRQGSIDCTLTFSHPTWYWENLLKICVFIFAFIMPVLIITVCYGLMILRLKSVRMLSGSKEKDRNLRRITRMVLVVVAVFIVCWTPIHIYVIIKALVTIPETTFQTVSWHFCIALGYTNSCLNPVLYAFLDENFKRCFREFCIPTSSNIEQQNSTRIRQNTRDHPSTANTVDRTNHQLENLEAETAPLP

In one experiment the target is T1, human opioid receptor-like receptor (ORL-1) (Homo sapiens, UniProt P41146).
T1 construct: host or cells: HEK-293
T1 sequence (P41146 whole entry): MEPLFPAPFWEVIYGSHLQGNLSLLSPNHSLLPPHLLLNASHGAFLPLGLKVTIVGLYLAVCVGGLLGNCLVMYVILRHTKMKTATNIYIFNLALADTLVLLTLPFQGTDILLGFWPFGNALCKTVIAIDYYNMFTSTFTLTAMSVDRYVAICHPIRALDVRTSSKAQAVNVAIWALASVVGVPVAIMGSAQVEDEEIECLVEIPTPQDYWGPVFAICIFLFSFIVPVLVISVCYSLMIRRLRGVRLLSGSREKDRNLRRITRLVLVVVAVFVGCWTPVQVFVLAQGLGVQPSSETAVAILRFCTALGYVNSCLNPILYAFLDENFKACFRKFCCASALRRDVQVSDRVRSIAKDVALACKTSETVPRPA
Kind of experiment: biochemical. In kind it is binding. To be noted: Nociceptin Affinity calc Ki.
For the molecule `O=C1NN=C(c2ccccc2)C12CCN(Cc1ccc3ccccc3c1)CC2` [8-[(naphth-2-yl-methyl)]-4-phenyl-2,3,8-triazospiro[4.5]dec-3-en-1-one], the Ki – broadly, a measure of affinity in units of concentration, obtained from inhibition or displacement – was 0.402 µM.
As for `O=C1NN=C(c2ccccc2)C12CCN(Cc1ccc(OCc3ccccc3)cc1)CC2` [8-(p-benzyloxybenzyl)-4-phenyl-2,3,8-triazospiro[4.5]dec-3-en-1-one], the Ki was 0.138 µM.
As to `O=C1NN=C(c2ccccc2)C12CCN(CCC(c1ccccc1)c1ccccc1)CC2` [8-(3,3-Bis(phenyl)propyl)-4-phenyl-2,3,8-triazospiro[4.5]dec-3-en-1-one], the Ki is 0.075 µM.
In the case of `O=C1NN=C(c2ccccc2)C12CCN(Cc1ccccc1)CC2` [8-(benzyl)-4-phenyl-2,3,8-triazospiro[4.5]dec-3-en-1-one], the Ki is 0.293 µM.
Take `CC(C)C1CCC(N2CCC3(CC2)C(=O)NN=C3c2ccccc2)CC1` (centres unmarked) [8-[4-(2-propyl)-cyclohexyl]-4-phenyl-2,3,8-triazospiro[4.5]dec-3-en-1-one]: the Ki was 0.0015 µM.
As to `CCCC1CCC(N2CCC3(CC2)C(=O)NN=C3c2ccccc2)CC1` (centres unmarked) [8-(4-propylcyclohexyl)-4-phenyl-2,3,8-triazospiro[4.5]dec-3-en-1-one], the Ki is 0.0297 µM.
The same measure, in the same setting: the value for `O=C1NN=C(c2ccccc2)C12CCN(CCCC(c1ccc(F)cc1)c1ccc(F)cc1)CC2` [8-[4,4-Bis(4-fluorophenyl)butyl]-4-phenyl-2,3,8-triazospiro[4.5]dec-3-en-1-one] was 2.59 µM.
Take `O=C1NN=C(c2ccccc2)C12CCN(CC1CCCCCCC1)CC2` [8-(cyclooctylmethyl)-4-phenyl-2,3,8-triazospiro[4.5]dec-3-en-1-one]: the Ki is 0.0081 µM and 0.061 µM.
Regarding `O=C1NN=C(c2ccccc2)C12CCN(C1c3ccccc3CCc3ccccc31)CC2` [8-(10,11-Dihydro-5H-dibenzo[a,d]-cyclohepten-5-yl)-4-phenyl-2,3,8-triazospiro[4.5]dec-3-en-1-one], the Ki was 0.282 µM.
Consider `O=C1NN=C(c2ccccc2)C12CCN(C1CCC3CCCCC3C1)CC2` (centres unmarked) [8-(decahydro-2-naphthyl)-4-phenyl-2,3,8-triazospiro[4.5]dec-3-en-1-one], for which the Ki was 0.0011 µM.
For the molecule `O=C1NN=C(c2ccccc2)C12CCN(Cc1ccc(-c3ccccc3)cc1)CC2` [8-(p-phenylbenzyl)-4-phenyl-2,3,8-triazospiro[4.5]dec-3-en-1-one], the inhibition constant (Ki) was 7.17 µM.
In the case of `CC(C)CCC(C)N1CCC2(CC1)C(=O)NN=C2c1ccccc1` (centres unmarked) [8-(5-methylhex-2-yl)-4-phenyl-2,3,8-triazospiro[4.5]dec-3-en-1-one], the Ki was 0.0115 µM.

The experiment is the same for the next values; noted with them: read-out: Nociceptin Affinity calc Ki.
Regarding `O=C1NN=C(c2ccccc2)C12CCN(C1CC3CCC1C3)CC2` (centres unmarked) [8-norbornyl-4-phenyl-2,3,8-triazospiro[4.5]dec-3-en-1-one], the Ki is 0.897 µM.

A further experiment has as its target Mu opioid receptor (Homo sapiens, UniProt P35372). The experiment in a line: Affinity at the μ receptor ([35S]GTPγS binding assay, membranes). The conditions noted are these: read-out: Mu Receptor Affinity calc Ki. On the procedure: Affinity at the μ receptor for compounds was obtained according to the following assay:
Mu opioid receptor membrane solution was prepared by sequentially adding final concentrations of 0.075 μg/μl of the desired membrane protein, 10 μg/ml saponin, 3 μM GDP and 0.20 nM [^35S]GTPγS to binding buffer (100 mM NaCl, 10 mM MgCl2, 20 mM HEPES, pH 7.4) on ice. The prepared membrane solution (190 μl/well) was transferred to 96-shallow well polypropylene plates containing 10 μl of 20×concentrated stock solutions of agonist prepared in DMSO. Plates were incubated for 30 min at room temperature with shaking. Reactions were terminated by rapid filtration onto 96-well Unifilter GF/B filter plates (Packard) using a 96-well tissue harvester (Brandel) and followed by three filtration washes with 200 μl ice-cold binding buffer (10 mM NaH2PO4, 10 mM Na2HPO4, pH 7.4). Filter plates were subsequently dried at 50° C. for 2-3 hours. Fifty μl/well scintillation cocktail (MicroScint20, Packard) was added and plates were counted in a Packard Top-Count for 1 min/well.
Data were analyzed using the curve fitting functions in GraphPad PRISM™, v.3.0 and the results for several compounds are set forth in table 2 below: […]
With `O=C1NNC(c2ccccc2)C12CCN(Cc1ccc3ccccc3c1)CC2` (centres unmarked) [8-[(naphth-2-yl-methyl)]-1-phenyl-2,3,8-triazospiro[4.5]decan-4-one], the Ki is 0.084 µM.
For the molecule `O=C1NNC(c2ccccc2)C12CCN(C1CCc3ccccc3C1)CC2` (centres unmarked) [8-(1,2,3,4-tetrahydro-2-naphthyl)-1-phenyl-2,3,8-triazospiro[4.5]decan-4-one], the Ki is 0.115 µM.
Regarding `O=C1NNC(c2ccccc2)C12CCN(CC1CCCCCCC1)CC2` (centres unmarked) [8-(cyclooctylmethyl)-1-phenyl-2,3,8-triazospiro[4.5]decan-4-one], the Ki is 0.191 µM.
Turning to `O=C1NNC(c2ccccc2)C12CCN(Cc1ccccc1)CC2` (centres unmarked) [8-(benzyl)-1-phenyl-2,3,8-triazospiro[4.5]decan-4-one], the Ki is 0.056 µM.
